The results in this text go back to patent US10053485B2, “Cytotoxic agents that preferentially target leukemia inhibitory factor (LIF) for the treatment of malignancies and as new contraceptive agents” (Evestra, Inc., priority 2015, dated 2018).

What all share (assay type): cell-based
One experiment relates to SW-620. Description: NCI-60 screen, Colon Cancer panel. The following applies: Homo sapiens, SW-620, 48 h.
A further experiment relates to MDA-MB-231 ATCC. Description: NCI-60 screen, Breast Cancer panel. The following applies: Homo sapiens, MDA-MB-231, 48 h.
For a further experiment, the system named is A549/ATCC. The experiment in a line: NCI-60 screen, Non-Small Cell Lung Cancer panel. The note with it: Homo sapiens, A549, 48 h.
The next experiment has as its system HCT-15. The experiment in a line: NCI-60 screen, Colon Cancer panel. The following applies: Homo sapiens, HCT-15, 48 h.
For a further experiment, the system named is A498. Description: NCI-60 screen, Renal Cancer panel. The following applies: Homo sapiens, A498, 48 h.
In a further experiment the test system is U87-MU (Glioma cells). Description: Short term (72 h) cytotoxicity assay. The note with it: Glioma cell.
The test system of experiment [1] is human umbilical vein endothelial cells (HUVEC). The experiment in a line: Matrigel in vitro HUVECs tube formation assay (angiogenesis). As for the experimental part:
Matrigel in vitro HUVECs tube formation assay: The tube formation assay was performed using 12-well plate coated with 100 μL Matrigel basement membrane matrix (BD Bioscience) per well and polymerized at 37° C. for 30 min. Human umbilical vascular endothelial cells (HUVECs) suspended in M199 medium containing 2% FBS were plated on the Matrigel at a density of 2×10^5 cells/well. […] After 8 h, the Matrigel-induced morphological changes were photographed and the extent of capillary tube formation was evaluated by measuring the total tube length per field.

The next experiment has as its system OVCAR-5. The experiment in a line: NCI-60 screen, Ovarian Cancer panel. The note with it: Homo sapiens, OVCAR-5, 48 h.
The subject of the next experiment is OVCAR-3. The experiment in a line: NCI-60 screen, Ovarian Cancer panel. The following applies: Homo sapiens, OVCAR-3, 48 h. As for the experimental part: EC 330 was also tested using the NCI-60 Screening Methodology. The human tumor cell lines of the cancer screening panel are grown in RPMI 1640 medium containing 5% fetal bovine serum and 2 mM L-glutamine. For a typical screening experiment, cells are inoculated into 96 well microtiter plates in 100 μL at plating densities ranging from 5,000 to 40,000 cells/well depending on the doubling time of individual cell lines. After cell inoculation, the microtiter plates are incubated at 37° C., 5% CO2, 95% air and 100% relative humidity for 24 h prior to addition of experimental drugs. […]
Following drug addition, the plates are incubated for an additional 48 h at 37° C., 5% CO2, 95% air, and 100% relative humidity. […] Bound stain is subsequently solubilized with 10 mM trizma base, and the absorbance is read on an automated plate reader at a wavelength of 515 nm. […] Using the seven absorbance measurements [time zero, (Tz), control growth, (C), and test growth in the presence of drug at the five concentration levels (Ti)], the percentage growth is calculated at each of the drug concentrations levels. Percentage growth inhibition is calculated as: [(Ti−Tz)/(C−Tz)]×100 for concentrations for which Ti>/=Tz [(Ti−Tz)/Tz]×100 for concentrations for which Ti<Tz.
Three dose response parameters are calculated for each experimental agent. […]

A further experiment has as its system SF-295. Description: NCI-60 screen, CNS Cancer panel. The following applies: Homo sapiens, SF-295, 48 h.
Experiment [2] concerns human endometrial stromal cells (HESC). The experiment in a line: Decidualization assay, actin cytoskeleton by phalloidin staining. The following applies: FIG. 3. As for the experimental part:
Decidualization studies: The above compounds were investigated originally for the treatment of endometriosis. The compounds were tested in a decidualization assay using human endometrial stromal fibroblast (HESC) cells. In preparation for the possibility of embryonic attachment, the stromal cells in the endometrium undergo extensive waves of proliferation, remodeling, and terminal differentiation that transforms the endometrium into an endocrine gland, called decidua. This transformation is called decidualization and it is under the control by ovarian hormones.
The level of apoptosis increases from the proliferative phase through menstrual cycle and peaks at menses. […] However if the cells are subjected to conditions that induce decidualization, stromal cells will begin to differentiate instead of undergoing apoptosis.
Briefly, human stromal endometrial cells were plated in the presence and absence of progesterone and allow undergoing decidualization. The cells treated with test compounds of different concentrations and stained for actin cytocketal morphology using phalloidin staining and monitored under fluorescent microscope.

Where [3] appears, read: read-out: GI50 (log10GI50) (converted).
Where [4] appears, read: read-out: LC50 (log10LC50) (converted).

pIC50: −log10 of the molar value.

By GI50 is commonly meant the concentration that inhibits growth by half. By pIC50 is commonly meant −log10 of the IC50, conventionally taken in molar units. A low value points to a large IC50. Turning to `C#CC(F)(F)[C@]1(O)CCC2C3CCC4=CC(=O)CCC4=C3C(c3ccc(C4CC4)cc3)C[C@@]21C` (stereo partly drawn) [EC330, 17α-(1,1-difluoro-2-propyn-1-yl)-17β-hydroxy-11β-[4-p-(cyclopropyl)phenyl]estra-4,9-dien-3-one], the GI50 in the experiment with SW-620 (setting [3]) was 2510 nM; with MDA-MB-231 ATCC (setting [3]), 550 nM; in the experiment with A549/ATCC (setting [3]), 2450 nM; in the experiment with HCT-15 (setting [3]) it was 1480 nM; in the experiment with A498 (setting [3]), 263 nM; in the experiment on OVCAR-5 (setting [3]), 1070 nM. The concentration for 50% growth inhibition (GI50) in the experiment with OVCAR-3 (SRB, read-out: GI50 (log10GI50) (converted)) is 12.9 nM; in the experiment with SF-295 (setting [3]), less than 10 nM. The CC50 with SW-620 (setting [4]) was more than 100000 nM; with MDA-MB-231 ATCC (setting [4]), more than 100000 nM; in the experiment with A549/ATCC (setting [4]), more than 100000 nM; in the experiment with HCT-15 (setting [4]), more than 100000 nM; with A498 (setting [4]) it was 3890 nM; in the experiment on OVCAR-5 (setting [4]), more than 100000 nM. In addition, the CC50 in the experiment on OVCAR-3 (setting [4]) was 933 nM; in the experiment on SF-295 (setting [4]) it was less than 10 nM. In the experiment on U87-MU (Glioma cells), the negative logarithm of the IC50 (pIC50) was 7.60. In [1] (1 μM concentration, all measured time points), the tube formation entry was “complete abrogation”. For the same compound, the “angiogenesis in vitro (tube formation assay)” value in experiment [1] (FIG. 2) is “inhibited”. In addition, in [2], the “actin / alpha-smooth muscle mediated cytoskeletal disruption of fibroblast” value is “cytoskeletal disruption”.
